{"source": "patent US20260232767A1", "about": "“INTERLEUKIN-23 RECEPTOR ANTAGONIST PEPTIDES FOR USE IN THE TREATMENT OF PSORIASIS” (Janssen Pharmaceutica NV, priority 2023, published 2026)", "system": "subjects with moderate-to-severe plaque psoriasis", "assay": "Safety, adverse events, Example 2 through Week 56", "assay_type": "in vivo, human", "conditions": "25 mg QD, through Week 56", "excerpt": "The LTE safety analysis was based on randomized participants in Example who entered the present long-term extension study and received at least one dose of study intervention (including a partial dose) during the study period.", "data": [{"smiles": "CC(=O)NCCCC[C@@H]1NC(=O)[C@H](Cc2c[nH]c3c(C)cccc23)NC(=O)[C@H]([C@@H](C)O)NC(=O)[C@H](CC(N)=O)NC(=O)[C@@H](NC(C)=O)C(C)(C)SSC(C)(C)[C@@H](C(=O)N[C@@H](Cc2ccc(OCCN)cc2)C(=O)N[C@@H](Cc2ccc3ccccc3c2)C(=O)NC2(C(=O)N[C@@H](CCC(=O)O)C(=O)N[C@@H](CC(N)=O)C(=O)N[C@@H](Cc3cccnc3)C(=O)N(C)CC(N)=O)CCOCC2)NC1=O", "note": "[IL-23 receptor antagonist peptide, Ac-[Pen]*-N-T-[W(7-Me)]-[Lys(Ac)]-[Pen]*-Phe[4-(2-aminoethoxy)]-[2-Nal]-[THP]-E-N-[3-Pal]-Sarc-NH2 (*[Pen]-[Pen]* formdisulfidebond)]", "values": [{"measurement": "Cardiac disorders: number of subjects", "value": 0}, {"measurement": "Chills: number of subjects", "value": 0}, {"measurement": "Cholelithiasis: number of subjects", "value": 0}, {"measurement": "Chronic obstructive pulmonary disease: number of subjects", "value": 0}, {"measurement": "Coronary artery disease: number of subjects", "value": 0}, {"measurement": "Cough: % of subjects", "value": "(2.3%)"}, {"measurement": "Cough: number of subjects", "value": 1}, {"measurement": "Decreased appetite: % of subjects", "value": "(2.3%)"}, {"measurement": "Decreased appetite: number of subjects", "value": 1}, {"measurement": "Depression: number of subjects", "value": 0}, {"measurement": "Dermal cyst: % of subjects", "value": "(2.3%)"}, {"measurement": "Dermal cyst: number of subjects", "value": 1}, {"measurement": "Dermatitis acneiform: number of subjects", "value": 0}, {"measurement": "Dermatitis contact: number of subjects", "value": 0}, {"measurement": "Diabetes mellitus: % of subjects", "value": "(2.3%)"}, {"measurement": "Diabetes mellitus: number of subjects", "value": 1}, {"measurement": "Diffuse alopecia: % of subjects", "value": "(2.3%)"}, {"measurement": "Diffuse alopecia: number of subjects", "value": 1}, {"measurement": "Dysuria: number of subjects", "value": 0}, {"measurement": "Ear and labyrinth disorders: % of subjects", "value": "(2.3%)"}, {"measurement": "Ear and labyrinth disorders: number of subjects", "value": 1}, {"measurement": "Endocrine disorders: number of subjects", "value": 0}, {"measurement": "Eye disorders: number of subjects", "value": 0}, {"measurement": "Eyelid skin dryness: number of subjects", "value": 0}, {"measurement": "Fatigue: number of subjects", "value": 0}, {"measurement": "General disorders and administration site conditions: % of subjects", "value": "(2.3%)"}, {"measurement": "General disorders and administration site conditions: number of subjects", "value": 1}, {"measurement": "Goiter: number of subjects", "value": 0}, {"measurement": "Haemochromatosis: number of subjects", "value": 0}, {"measurement": "Hand dermatitis: number of subjects", "value": 0}, {"measurement": "Hematuria: number of subjects", "value": 0}, {"measurement": "Hepatobiliary disorders: % of subjects", "value": "(2.3%)"}, {"measurement": "Hepatobiliary disorders: number of subjects", "value": 1}, {"measurement": "Hypercholesterolemia: number of subjects", "value": 0}, {"measurement": "Hyperglycemia: number of subjects", "value": 0}, {"measurement": "Hyperlipidemia: number of subjects", "value": 0}, {"measurement": "Hypertension: number of subjects", "value": 0}, {"measurement": "Hypertransaminasemia: number of subjects", "value": 0}, {"measurement": "Hypertriglyceridemia: % of subjects", "value": "(2.3%)"}, {"measurement": "Hypertriglyceridemia: number of subjects", "value": 1}, {"measurement": "Hypoacusis: number of subjects", "value": 0}, {"measurement": "Immune system disorders: number of subjects", "value": 0}, {"measurement": "Influenza like illness: number of subjects", "value": 0}, {"measurement": "Insomnia: number of subjects", "value": 0}, {"measurement": "Intertrigo: number of subjects", "value": 0}, {"measurement": "Ketonuria: number of subjects", "value": 0}, {"measurement": "Leukocyturia: number of subjects", "value": 0}, {"measurement": "Leukopenia: number of subjects", "value": 0}, {"measurement": "Libido decreased: number of subjects", "value": 0}, {"measurement": "Liver disorder: number of subjects", "value": 0}, {"measurement": "Lymphopenia: number of subjects", "value": 0}, {"measurement": "Menopause: number of subjects", "value": 0}, {"measurement": "Metabolism and nutrition disorders: % of subjects", "value": "(4.7%)"}, {"measurement": "Metabolism and nutrition disorders: number of subjects", "value": 2}, {"measurement": "Neoplasms benign, malignant and unspecified (incl cysts and polyps): number of subjects", "value": 0}, {"measurement": "Nephrolithiasis: number of subjects", "value": 0}, {"measurement": "Neutropenia: number of subjects", "value": 0}, {"measurement": "Night sweats: number of subjects", "value": 0}, {"measurement": "Non-cardiac chest pain: number of subjects", "value": 0}, {"measurement": "Ocular cyst: number of subjects", "value": 0}, {"measurement": "Oedema peripheral: number of subjects", "value": 0}, {"measurement": "Oropharyngeal pain: number of subjects", "value": 0}, {"measurement": "Procedural pain: number of subjects", "value": 0}, {"measurement": "Productive cough: number of subjects", "value": 0}, {"measurement": "Proteinuria: number of subjects", "value": 0}, {"measurement": "Pruritus: number of subjects", "value": 0}, {"measurement": "Psoriasis: number of subjects", "value": 0}, {"measurement": "Psychiatric disorders: number of subjects", "value": 0}, {"measurement": "Pyrexia: % of subjects", "value": "(2.3%)"}, {"measurement": "Pyrexia: number of subjects", "value": 1}, {"measurement": "Rash pruritic: number of subjects", "value": 0}, {"measurement": "Renal and urinary disorders: % of subjects", "value": "(2.3%)"}, {"measurement": "Renal and urinary disorders: number of subjects", "value": 1}, {"measurement": "Renal mass: % of subjects", "value": "(2.3%)"}, {"measurement": "Renal mass: number of subjects", "value": 1}, {"measurement": "Respiratory, thoracic and mediastinal disorders: % of subjects", "value": "(2.3%)"}, {"measurement": "Respiratory, thoracic and mediastinal disorders: number of subjects", "value": 1}, {"measurement": "Retinal vein occlusion: number of subjects", "value": 0}, {"measurement": "Rhinorrhoea: number of subjects", "value": 0}, {"measurement": "Seasonal allergy: number of subjects", "value": 0}, {"measurement": "Skin and subcutaneous tissue disorders: % of subjects", "value": "(7.0%)"}, {"measurement": "Skin and subcutaneous tissue disorders: number of subjects", "value": 3}, {"measurement": "Skin laceration: number of subjects", "value": 0}, {"measurement": "Skin papilloma: number of subjects", "value": 0}, {"measurement": "Social circumstances: number of subjects", "value": 0}, {"measurement": "Steatohepatitis: % of subjects", "value": "(2.3%)"}, {"measurement": "Steatohepatitis: number of subjects", "value": 1}, {"measurement": "Subjects with 1 or more treatment-emergent serious adverse events", "value": 0}, {"measurement": "Subjects with AE leading to discontinuation: Abdominal discomfort", "value": 0}, {"measurement": "Subjects with AE leading to discontinuation: Abdominal pain", "value": 0}, {"measurement": "Subjects with AE leading to discontinuation: Asthenia", "value": 0}, {"measurement": "Subjects with AE leading to discontinuation: Chills", "value": 0}, {"measurement": "Subjects with AE leading to discontinuation: Ear and labyrinth disorders", "value": 0}, {"measurement": "Subjects with AE leading to discontinuation: Gastrointestinal disorders", "value": 0}, {"measurement": "Subjects with AE leading to discontinuation: General disorders and administration site conditions", "value": 0}, {"measurement": "Subjects with AE leading to discontinuation: Headache", "value": 0}, {"measurement": "Subjects with AE leading to discontinuation: Insomnia", "value": 0}, {"measurement": "Subjects with AE leading to discontinuation: Nausea", "value": 0}, {"measurement": "Subjects with AE leading to discontinuation: Nervous system disorders", "value": 0}, {"measurement": "Subjects with AE leading to discontinuation: Proctalgia", "value": 0}, {"measurement": "Subjects with AE leading to discontinuation: Psoriasis", "value": 0}, {"measurement": "Subjects with AE leading to discontinuation: Psychiatric disorders", "value": 0}, {"measurement": "Subjects with AE leading to discontinuation: Skin and subcutaneous tissue disorders", "value": 0}, {"measurement": "Subjects with AE leading to discontinuation: Suicide attempt", "value": 0}, {"measurement": "Subjects with AE leading to discontinuation: Vertigo", "value": 0}, {"measurement": "Subjects with AE leading to discontinuation: Vomiting", "value": 0}, {"measurement": "Subjects with COVID-19 associated AE: SARS-CoV-2 test positive", "value": 0}, {"measurement": "Subjects with treatment-emergent AE: Influenza", "value": 0}, {"measurement": "Subjects with treatment-emergent serious AE: COVID-19", "value": 0}, {"measurement": "Subjects with treatment-emergent serious AE: Cardiac disorders", "value": 0}, {"measurement": "Subjects with treatment-emergent serious AE: Cerebrovascular accident", "value": 0}, {"measurement": "Subjects with treatment-emergent serious AE: Coronary artery disease", "value": 0}, {"measurement": "Subjects with treatment-emergent serious AE: Diverticulitis", "value": 0}, {"measurement": "Subjects with treatment-emergent serious AE: Foot deformity", "value": 0}, {"measurement": "Subjects with treatment-emergent serious AE: General disorders and administration site conditions", "value": 0}, {"measurement": "Subjects with treatment-emergent serious AE: Infected cyst", "value": 0}, {"measurement": "Subjects with treatment-emergent serious AE: Infections and infestations", "value": 0}, {"measurement": "Subjects with treatment-emergent serious AE: Injury, poisoning and procedural complications", "value": 0}, {"measurement": "Subjects with treatment-emergent serious AE: Intervertebral disc protrusion", "value": 0}, {"measurement": "Subjects with treatment-emergent serious AE: Ligament injury", "value": 0}, {"measurement": "Subjects with treatment-emergent serious AE: Musculoskeletal and connective tissue disorders", "value": 0}]}]}
